Results reported in PubChem BioAssay AID256 (DTP/NCI, 2004).
Several values for one entry are separate records, joined by “and”; a condition that tells them apart may be missing. Identical values can stand only once. Inconclusive results and toxic doses are left out. Rule for the calls: active = survival T/C of 150% or more; inactive = T/C below 125% in these data.

Test system: CD2F1 mice, L1210 leukemia ip, survival T/C
Assay: NCI In Vivo Anticancer Drug Screen. Data for tumor model L1210 Leukemia (intraperitoneal) in CD2F1 (CDF1) mice
Conditions: higher = longer survival
Summary of the method: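 Transplantable tumor in mice; compound-treated vs vehicle-treated groups. Read-out = treated/control ratio of the measured endpoint.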

[1] = endpoint: mean survival time, dose: 100.0 mg/kg/injection, schedule: Q01DX009 (ip), vehicle: saline with Tween-80

Measured: T/C

CO[C@@]12[C@@H]3N[C@@H]3CN1C1=C(C(=O)C(NCCc3ccccn3)=C(C)C1=O)[C@@H]2COC(N)=O
active: endpoint: median survival time, dose: 3.13 mg/kg/injection, schedule: Q01DX005 (ip), vehicle: saline with Tween-80 153 % of control | endpoint: median survival time, dose: 6.25 mg/kg/injection, schedule: Q01DX005 (ip), vehicle: saline with Tween-80 164 % of control | endpoint: median survival time, dose: 12.5 mg/kg/injection, schedule: Q01DX005 (ip), vehicle: saline with Tween-80 166 % of control | endpoint: median survival time, dose: 18.0 mg/kg/injection, schedule: Q01DX001 (ip), vehicle: saline with Tween-80 153 % of control | endpoint: median survival time, dose: 30.0 mg/kg/injection, schedule: Q01DX001 (ip), vehicle: saline with Tween-80 160 % of control | endpoint: median survival time, dose: 50.0 mg/kg/injection, schedule: Q01DX001 (ip), vehicle: saline with Tween-80 188 % of control and 200 % of control | endpoint: median survival time, dose: 83.32 mg/kg/injection, schedule: Q01DX001 (ip), vehicle: saline with Tween-80 156 % of control | endpoint: median survival time, dose: 25000.0 micrograms/kg/injection, schedule: Q01DX001 (ip), vehicle: saline with Tween-80 153 % of control | endpoint: median survival time, dose: 50000.0 micrograms/kg/injection, schedule: Q01DX001 (ip), vehicle: saline with Tween-80 322 % of control
inactive: endpoint: median survival time, dose: 3.12 mg/kg/injection, schedule: Q01DX001 (ip), vehicle: saline with Tween-80 93 % of control | endpoint: median survival time, dose: 6.25 mg/kg/injection, schedule: Q01DX001 (ip), vehicle: saline with Tween-80 111 % of control | endpoint: median survival time, dose: 12.5 mg/kg/injection, schedule: Q01DX001 (ip), vehicle: saline with Tween-80 120 % of control | endpoint: median survival time, dose: 25.0 mg/kg/injection, schedule: Q01DX005 (ip), vehicle: saline with Tween-80 89 % of control | endpoint: median survival time, dose: 3.12 micrograms/kg/injection, schedule: Q01DX001 (ip), vehicle: saline with Tween-80 97 % of control | endpoint: median survival time, dose: 6.25 micrograms/kg/injection, schedule: Q01DX001 (ip), vehicle: saline with Tween-80 102 % of control | endpoint: median survival time, dose: 12.5 micrograms/kg/injection, schedule: Q01DX001 (ip), vehicle: saline with Tween-80 108 % of control | endpoint: median survival time, dose: 25.0 micrograms/kg/injection, schedule: Q01DX001 (ip), vehicle: saline with Tween-80 97 % of control | endpoint: median survival time, dose: 50.0 micrograms/kg/injection, schedule: Q01DX001 (ip), vehicle: saline with Tween-80 97 % of control | endpoint: median survival time, dose: 3125.0 micrograms/kg/injection, schedule: Q01DX001 (ip), vehicle: saline with Tween-80 118 % of control

COC(=O)CC(N)C(=O)O (stereo unspecified)
inactive: endpoint: median survival time, dose: 6.25 mg/kg/injection, schedule: Q01DX009 (ip), vehicle: saline 100 % of control | endpoint: median survival time, dose: 12.5 mg/kg/injection, schedule: Q01DX009 (ip), vehicle: saline 97 % of control | endpoint: median survival time, dose: 25.0 mg/kg/injection, schedule: Q01DX009 (ip), vehicle: saline 98 % of control | endpoint: median survival time, dose: 50.0 mg/kg/injection, schedule: Q01DX009 (ip), vehicle: saline 94 % of control | endpoint: median survival time, dose: 100.0 mg/kg/injection, schedule: Q01DX009 (ip), vehicle: saline 98 % of control | endpoint: median survival time, dose: 200.0 mg/kg/injection, schedule: Q01DX009 (ip), vehicle: saline 97 % of control

CCOC(=O)/C(C#N)=C\c1cc(OC)ccc1OC
inactive: endpoint: mean survival time, dose: 25.0 mg/kg/injection, schedule: Q01DX009 (ip), vehicle: saline with Tween-80 102 % of control | endpoint: mean survival time, dose: 50.0 mg/kg/injection, schedule: Q01DX009 (ip), vehicle: saline with Tween-80 94 % of control | [1] 104 % of control

NCCC(=O)O
inactive: [1] 98 % of control | endpoint: mean survival time, dose: 100.0 mg/kg/injection, schedule: Q04DX003 (ip), vehicle: saline with Tween-80 89 % of control | endpoint: mean survival time, dose: 200.0 mg/kg/injection, schedule: Q01DX009 (ip), vehicle: saline with Tween-80 97 % of control | endpoint: mean survival time, dose: 200.0 mg/kg/injection, schedule: Q04DX003 (ip), vehicle: saline with Tween-80 104 % of control | endpoint: mean survival time, dose: 400.0 mg/kg/injection, schedule: Q01DX009 (ip), vehicle: saline with Tween-80 97 % of control | endpoint: mean survival time, dose: 400.0 mg/kg/injection, schedule: Q04DX003 (ip), vehicle: saline with Tween-80 98 % of control

CC(=O)Nc1ncc2ccccc2c1-c1ccc(NC(=O)CN(CCCl)CCCl)cc1
inactive: endpoint: mean survival time, dose: 25.0 mg/kg/injection, schedule: Q04DX003 (ip), vehicle: other 112 % of control | endpoint: mean survival time, dose: 50.0 mg/kg/injection, schedule: Q04DX003 (ip), vehicle: other 116 % of control | endpoint: mean survival time, dose: 100.0 mg/kg/injection, schedule: Q04DX003 (ip), vehicle: other 112 % of control | endpoint: mean survival time, dose: 200.0 mg/kg/injection, schedule: Q04DX003 (ip), vehicle: other 124 % of control

c1ccc2ncccc2c1
inactive: endpoint: mean survival time, dose: 100.0 mg/kg/injection, schedule: Q01DX009 (ip), vehicle: other 103 % of control | endpoint: mean survival time, dose: 200.0 mg/kg/injection, schedule: Q01DX009 (ip), vehicle: other 101 % of control

O=C1C(=O)c2cccnc2C(NCc2ccccc2)=C1Cl
inactive: endpoint: mean survival time, dose: 75.0 mg/kg/injection, schedule: Q04DX003 (ip), vehicle: saline 98 % of control | endpoint: mean survival time, dose: 150.0 mg/kg/injection, schedule: Q04DX003 (ip), vehicle: saline 101 % of control | endpoint: mean survival time, dose: 300.0 mg/kg/injection, schedule: Q04DX003 (ip), vehicle: saline 96 % of control

OC1CCSc2ccc3ccccc3c21 (stereo unspecified)
inactive: endpoint: mean survival time, dose: 100.0 mg/kg/injection, schedule: Q01DX001 (ip), vehicle: saline with Tween-80 108 % of control | endpoint: mean survival time, dose: 200.0 mg/kg/injection, schedule: Q01DX001 (ip), vehicle: saline with Tween-80 105 % of control | endpoint: mean survival time, dose: 400.0 mg/kg/injection, schedule: Q01DX001 (ip), vehicle: saline with Tween-80 103 % of control

CCNC(=O)[B-][N+](C)(C)C
inactive: endpoint: median survival time, dose: 12.5 mg/kg/injection, schedule: Q01DX009 (ip), vehicle: Klucel (hydroxypropylcellulose) (HPC) 108 % of control | endpoint: median survival time, dose: 25.0 mg/kg/injection, schedule: Q01DX009 (ip), vehicle: Klucel (hydroxypropylcellulose) (HPC) 106 % of control | endpoint: median survival time, dose: 50.0 mg/kg/injection, schedule: Q01DX009 (ip), vehicle: Klucel (hydroxypropylcellulose) (HPC) 106 % of control | endpoint: median survival time, dose: 100.0 mg/kg/injection, schedule: Q01DX009 (ip), vehicle: Klucel (hydroxypropylcellulose) (HPC) 107 % of control | endpoint: median survival time, dose: 200.0 mg/kg/injection, schedule: Q01DX009 (ip), vehicle: Klucel (hydroxypropylcellulose) (HPC) 106 % of control

c1ccc(-c2nnc(-c3ccccn3)nn2)nc1
inactive: endpoint: mean survival time, dose: 12.5 mg/kg/injection, schedule: Q01DX009 (ip), vehicle: Klucel (hydroxypropylcellulose) (HPC) 103 % of control | endpoint: mean survival time, dose: 25.0 mg/kg/injection, schedule: Q01DX009 (ip), vehicle: Klucel (hydroxypropylcellulose) (HPC) 101 % of control | endpoint: mean survival time, dose: 50.0 mg/kg/injection, schedule: Q01DX009 (ip), vehicle: Klucel (hydroxypropylcellulose) (HPC) 106 % of control | endpoint: mean survival time, dose: 100.0 mg/kg/injection, schedule: Q01DX009 (ip), vehicle: Klucel (hydroxypropylcellulose) (HPC) 101 % of control | endpoint: mean survival time, dose: 200.0 mg/kg/injection, schedule: Q01DX009 (ip), vehicle: Klucel (hydroxypropylcellulose) (HPC) 95 % of control | endpoint: mean survival time, dose: 400.0 mg/kg/injection, schedule: Q01DX009 (ip), vehicle: Klucel (hydroxypropylcellulose) (HPC) 101 % of control

COC(=O)c1ccccc1NCCNc1ccccc1C(=O)OC
inactive: endpoint: mean survival time, dose: 50.0 mg/kg/injection, schedule: Q04DX002 (ip), vehicle: saline with Tween-80 100 % of control | endpoint: mean survival time, dose: 200.0 mg/kg/injection, schedule: Q04DX002 (ip), vehicle: saline with Tween-80 95 % of control | endpoint: mean survival time, dose: 400.0 mg/kg/injection, schedule: Q04DX002 (ip), vehicle: saline with Tween-80 88 % of control

COc1ccc2[nH]c3c(C)c4cc[n+](C)cc4c(C)c3c2c1
inactive: endpoint: mean survival time, dose: 3.13 mg/kg/injection, schedule: Q01DX009 (ip), vehicle: saline 120 % of control | endpoint: mean survival time, dose: 6.25 mg/kg/injection, schedule: Q01DX009 (ip), vehicle: saline with Tween-80 122 % of control | endpoint: mean survival time, dose: 6.25 mg/kg/injection, schedule: Q01DX009 (ip), vehicle: saline 120 % of control | endpoint: mean survival time, dose: 6.25 mg/kg/injection, schedule: Q04DX003 (ip), vehicle: saline with Tween-80 105 % of control | endpoint: mean survival time, dose: 12.5 mg/kg/injection, schedule: Q01DX009 (ip), vehicle: saline with Tween-80 87 % of control | endpoint: mean survival time, dose: 12.5 mg/kg/injection, schedule: Q01DX009 (ip), vehicle: saline 110 % of control | endpoint: mean survival time, dose: 12.5 mg/kg/injection, schedule: Q04DX003 (ip), vehicle: saline with Tween-80 108 % of control | endpoint: mean survival time, dose: 25.0 mg/kg/injection, schedule: Q04DX003 (ip), vehicle: saline sonified 116 % of control | endpoint: mean survival time, dose: 25.0 mg/kg/injection, schedule: Q04DX003 (ip), vehicle: saline with Tween-80 101 % of control | endpoint: mean survival time, dose: 37.5 mg/kg/injection, schedule: Q04DX003 (ip), vehicle: saline sonified 86 % of control

C=CCNC(=O)C(O)C(O)C(=O)NCC=C (stereo unspecified)
inactive: endpoint: mean survival time, dose: 100.0 mg/kg/injection, schedule: Q01DX009 (ip), vehicle: acetone 101 % of control | endpoint: mean survival time, dose: 100.0 mg/kg/injection, schedule: Q04DX003 (ip), vehicle: acetone 98 % of control | endpoint: mean survival time, dose: 200.0 mg/kg/injection, schedule: Q01DX009 (ip), vehicle: acetone 96 % of control | endpoint: mean survival time, dose: 200.0 mg/kg/injection, schedule: Q04DX003 (ip), vehicle: acetone 100 % of control | endpoint: mean survival time, dose: 400.0 mg/kg/injection, schedule: Q01DX009 (ip), vehicle: acetone 98 % of control | endpoint: mean survival time, dose: 400.0 mg/kg/injection, schedule: Q04DX003 (ip), vehicle: acetone 112 % of control
